Values after ≈ are worked out from the molar mass of the structure shown. Bridge positions count the residues as written; N and C are the ends. Square brackets hold non-standard residues; d marks the D form. Peptide text beside a SMILES is read from it. * marks the point of attachment. Myristoyl = CCCCCCCCCCCCCC(=O)*; Orn = NCCC[C@H](N)C(=O)O; Dab = NCC[C@H](N)C(=O)O; Dap = NC[C@H](N)C(=O)O
What was measured:
S. aureus USA300 = assay: Membrane component feeding assay; assay type: cell-based; settings: for inhibition of antibacterial activity by MK, UQ or PC: feeding 2 to 128 µg mL^−1, S. aureus USA300 (PC also E. coli DH5α), Figure S125
Procedure: The effects of bacterial membrane components on aquicidine L's or aquicidine C4's anti‐bacterial activities were evaluated using E. coli DH5α or S. aureus USA300. […] All experiments were done in triplicate (n = 3) and repeated two independent times (n = 2).

[1] = test system: Candida albicans ATCC 64550; assay type: cell-based; settings: ATCC 64550, 16 h
Procedure: All MIC assays were performed two independent times (n = 2) in 96‐well plates using a broth micro‐dilution method. The lowest concentration of that inhibited visible microbial growth was recorded as the MIC value.
For fungal strains, overnight cultures were diluted 2000‐fold in YPD broth. 100 µL of diluted cells was mixed with 100 µL of YPD broth containing each peptide ranging from […] 64 to 0.125 µg mL^−1 at 2‐fold serial dilutions.

[2] = Isothermal titration calorimetry; assay type: binding; settings: Table S12, ITC, 20 mM HEPES pH 7.5, 20 injections
Procedure: (§1) Calorimetric experiments were performed to evaluate the interaction between CL, PE, PG, or LPS and aquicidine L or aquicidine C4. To determine the affinity between aquicidine L or aquicidine C4 and CL, PE, or PG, both 2 mM CL, PE, or PG and 0.2 mM aquicidine L or aquicidine C4 were dissolved in 20 mM HEPES buffer (pH 7.5). To determine the interaction between LPS and aquicidine L or aquicidine C4, 2 mM LPS and 0.2 mM aquicidine L or aquicidine C4 were dissolved in H2O. Sequential injections of CL, PE, PG, or LPS into the calorimetric cell filled with aquicidine L or aquicidine C4 were repeated 20 times with equilibration intervals of 200 s. Data were collected by using a MicroCal PEAQ‐ITC instrument and calculated for the equilibrium dissociation constant (KD), change of enthalpy (ΔH), and change of entropy […].

[3] = Isothermal titration calorimetry; assay type: binding, Escherichia coli O55:B5; settings: Table S12; ITC, 2 mM LPS into 0.2 mM peptide, in H2O, 20 injections
Procedure: as §1

[4] = test system: Klebsiella pneumoniae ATCC 13883; assay: microbe, parasite or virus in culture; assay type: cell-based; settings: ATCC 13883, 16 h
Procedure, shortened: (§2)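 Broth microdilution in LB, run in two independent repeats. Overnight cultures were diluted 5000-fold, except S. aureus at 10000-fold, and mixed with peptide-containing LB (2-fold series, 64 to 0.125 µg mL^−1 before mixing). MIC is the lowest concentration that prevented visible growth.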

[5] = test system: Acinetobacter baumannii ATCC 19606; assay: microbe, parasite or virus in culture; assay type: cell-based; settings: ATCC 19606, 16 h
Procedure, shortened: as §2

[6] = test system: Streptococcus pyogenes ATCC 19615; assay: microbe, parasite or virus in culture; assay type: cell-based; settings: Table S11; LB broth, 37 °C, 16 h, n = 2
Procedure, shortened: as §2

[7] = test system: Staphylococcus aureus USA300; assay: microbe, parasite or virus in culture; assay type: cell-based; settings: for MIC Staphylococcus aureus USA300: Table S11, LB broth, 37 °C, 16 h, n = 2
Procedure, shortened: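 Growth inhibition read visually; MIC taken as lowest inhibitory concentration. LB medium; inocula from overnight cultures diluted 5000-fold, S. aureus 10000-fold. Peptide range 64 to 0.125 µg mL^−1 (2-fold, pre-mix), two independent determinations.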

[8] = test system: Pseudomonas aeruginosa ATCC 9027; assay: microbe, parasite or virus in culture; assay type: cell-based; settings: ATCC 9027, 16 h
Procedure, shortened: as §2

[9] = test system: Enterococcus faecalis ATCC 29212; assay: microbe, parasite or virus in culture; assay type: cell-based; settings: ATCC 29212, 16 h
Procedure, shortened: as §2

[10] = test system: Klebsiella pneumoniae NCTC 5056; assay: microbe, parasite or virus in culture; assay type: cell-based; settings: NCTC 5056, 16 h
Procedure, shortened: as §2

[11] = test system: Vibrio alginolyticus XSBZ14; assay: microbe, parasite or virus in culture; assay type: cell-based; settings: 16 h
Procedure, shortened: as §2

[12] = test system: Salmonella typhimurium LXX; assay: microbe, parasite or virus in culture; assay type: cell-based; settings: murium LXX, 16 h
Procedure, shortened: as §2

[13] = test system: Staphylococcus aureus ATCC 25923; assay: microbe, parasite or virus in culture; assay type: cell-based; settings: ATCC 25923, 16 h
Procedure, shortened: as §2

Enterococcus faecalis 26 = assay: microbe, parasite or virus in culture; assay type: cell-based; settings: 26, 16 h
Procedure, shortened: as §2

[14] = test system: Klebsiella pneumoniae CRKP HS11286; assay: microbe, parasite or virus in culture; assay type: cell-based; settings: for MIC Klebsiella pneumoniae CRKP HS11286: CRKP HS11286, 16 h
Procedure, shortened: as §2

[15] = test system: Pseudomonas aeruginosa PAO1; assay: microbe, parasite or virus in culture; assay type: cell-based
Procedure, shortened: as §2

[16] = test system: Staphylococcus aureus ATCC 6538; assay: microbe, parasite or virus in culture; assay type: cell-based; settings: ATCC 6538, 16 h
Procedure, shortened: as §2

[17] = test system: Klebsiella pneumoniae CRKP 5452; assay: microbe, parasite or virus in culture; assay type: cell-based; settings: for MIC Klebsiella pneumoniae CRKP 5452: Table S11, LB broth, 37 °C, 16 h, n = 2
Procedure, shortened: as §2

[18] = test system: Salmonella enterica ATCC 14028; assay: microbe, parasite or virus in culture; assay type: cell-based; settings: ATCC 14028, 16 h
Procedure, shortened: as §2

[19] = test system: Acinetobacter baumannii 1104008; assay: microbe, parasite or virus in culture; assay type: cell-based; settings: Table S11; LB broth, 37 °C, 16 h, n = 2
Procedure, shortened: as §2

Enterococcus faecalis 28 = assay: microbe, parasite or virus in culture; assay type: cell-based; settings: 28, 16 h
Procedure, shortened: as §2

[20] = test system: Staphylococcus aureus Newman; assay: microbe, parasite or virus in culture; assay type: cell-based; settings: Newman, 16 h
Procedure, shortened: as §2

[21] = test system: Enterococcus faecium 35682; assay: microbe, parasite or virus in culture; assay type: cell-based; settings: Table S11; LB broth, 37 °C, 16 h, n = 2
Procedure, shortened: as §2

[22] = test system: Acinetobacter baumannii ATCC 17978; assay: microbe, parasite or virus in culture; assay type: cell-based; settings: ATCC 17978, 16 h
Procedure, shortened: as §2

[23] = test system: Streptococcus mutans ATCC 25175; assay: microbe, parasite or virus in culture; assay type: cell-based; settings: ATCC 25175, 16 h
Procedure, shortened: as §2

| Structure (SMILES) | inhibition of antibacterial activity by MK, UQ or PC (S. aureus USA300) | MIC Candida albicans ATCC 64550 [1] | Kd ([2]; 2 mM CL into 0.2 mM peptide) | Kd ([2]; 2 mM PE into 0.2 mM peptide) | Kd ([2]; 2 mM PG into 0.2 mM peptide) | Kd [3] | MIC Klebsiella pneumoniae ATCC 13883 [4] | MIC Acinetobacter baumannii ATCC 19606 [5] | MIC Streptococcus pyogenes ATCC 19615 [6] | MIC Staphylococcus aureus USA300 [7] | MIC Pseudomonas aeruginosa ATCC 9027 [8] | MIC Enterococcus faecalis ATCC 29212 [9] | MIC Klebsiella pneumoniae NCTC 5056 [10] | MIC Vibrio alginolyticus XSBZ14 [11] | MIC Salmonella typhimurium LXX [12] | MIC Staphylococcus aureus ATCC 25923 [13] | MIC Enterococcus faecalis 26 (Enterococcus faecalis 26) | MIC Klebsiella pneumoniae CRKP HS11286 [14] | MIC Staphylococcus aureus ATCC 6538 [16] | MIC Klebsiella pneumoniae CRKP 5452 [17] | further results |
| --- | --- | --- | --- | --- | --- | --- | --- | --- | --- | --- | --- | --- | --- | --- | --- | --- | --- | --- | --- | --- | --- |
| CCCCCCCCCCCCCC(=O)N[C@@H](CN)C(=O)N[C@H](C(=O)N[C@@H](CC(C)C)C(=O)N[C@H]1COC(=O)[C@H](Cc2ccccc2)NC(=O)[C@H](CC(N)=O)NC(=O)[C@H](CCCN)NC(=O)[C@H]([C@@H](C)CC)NC(=O)[C@H](Cc2ccccc2)NC(=O)[C@H](CN)NC(=O)[C@H](CCN)NC1=O)[C@@H](C)O [synAQU5-C4] (Myristoyl-[Dap]TLS[Dab][Dap]FI[Orn]NF; ester 4-C) | did not show dose‐dependent inhibition | > 64 mg/L | 0.06 µM | 49.3 µM | 0.08 µM | 1.84 µM | > 64 mg/L | 32 mg/L (≈ 22.5 µM) | 2 mg/L (≈ 1.41 µM) | 4 mg/L (≈ 2.82 µM) | 16 mg/L (≈ 11.3 µM) | 4 mg/L (≈ 2.82 µM) | > 64 mg/L | 32 mg/L (≈ 22.5 µM) | 32 mg/L (≈ 22.5 µM) | 4 mg/L (≈ 2.82 µM) | 2 mg/L (≈ 1.41 µM) | 32 mg/L (≈ 22.5 µM) | 4 mg/L (≈ 2.82 µM) | 32 mg/L (≈ 22.5 µM) | inhibition of antibacterial activity by CL and PG (S. aureus USA300; feeding 2 to 128 µg mL^−1, S. aureus USA300, Figure 5d): stronger dose‐dependent inhibition; antibacterial activity (MIC) S. aureus USA300 ([7]; Figure S127b, wild type): 4 mg/L; MIC Pseudomonas aeruginosa PAO1 ([15]; PAO1, 16 h): 32 mg/L (≈ 22.5 µM); MIC Salmonella enterica ATCC 14028 [18]: 32 mg/L (≈ 22.5 µM); MIC Acinetobacter baumannii 1104008 [19]: 16 mg/L (≈ 11.3 µM); MIC Enterococcus faecalis 28 (Enterococcus faecalis 28): 4 mg/L (≈ 2.82 µM); MIC Staphylococcus aureus Newman [20]: 4 mg/L (≈ 2.82 µM); MIC Enterococcus faecium 35682 [21]: 4 mg/L (≈ 2.82 µM); MIC Acinetobacter baumannii ATCC 17978 [22]: 32 mg/L (≈ 22.5 µM); MIC Streptococcus mutans ATCC 25175 [23]: 4 mg/L (≈ 2.82 µM) |
| CCCCCCCCCCCCCC(=O)N[C@@H](CN)C(=O)N[C@H](C(=O)N[C@@H](CC(C)C)C(=O)N[C@@H](CO)C(=O)N[C@@H](CCN)C(=O)N[C@@H](CN)C(=O)N[C@@H](Cc1ccccc1)C(=O)N[C@H](C(=O)N[C@@H](CCCN)C(=O)N[C@@H](CC(N)=O)C(=O)N[C@@H](Cc1ccccc1)C(=O)O)[C@@H](C)CC)[C@@H](C)O [synAQU5-L] (Myristoyl-[Dap]TLS[Dab][Dap]FI[Orn]NF-OH) | did not show dose‐dependent inhibition | > 64 mg/L | 0.28 µM | 7.88 µM | 0.32 µM | 0.29 µM | 8 mg/L (≈ 5.56 µM) | 8 mg/L (≈ 5.56 µM) | 8 mg/L (≈ 5.56 µM) | 16 mg/L (≈ 11.1 µM) | 4 mg/L (≈ 2.78 µM) | 32 mg/L (≈ 22.3 µM) | 8 mg/L (≈ 5.56 µM) | 8 mg/L (≈ 5.56 µM) | 8 mg/L (≈ 5.56 µM) | 32 mg/L (≈ 22.3 µM) | 8 mg/L (≈ 5.56 µM) | 4 mg/L (≈ 2.78 µM) | 16 mg/L (≈ 11.1 µM) | 4 mg/L (≈ 2.78 µM) | antibacterial activity (MIC) K. pneumoniae CRKP HS11286 ([14]; Figure S127a): 4 mg/L; MIC Pseudomonas aeruginosa PAO1 ([15]; Table S11, LB broth, 37 °C, 16 h, n = 2): 4 mg/L (≈ 2.78 µM); antibacterial activity (MIC) K. pneumoniae CRKP 5452 ([17]; Figure S127a, wild type): 4 mg/L; MIC Salmonella enterica ATCC 14028 [18]: 4 mg/L (≈ 2.78 µM); MIC Acinetobacter baumannii 1104008 [19]: 4 mg/L (≈ 2.78 µM); MIC Enterococcus faecalis 28 (Enterococcus faecalis 28): 16 mg/L (≈ 11.1 µM); MIC Staphylococcus aureus Newman [20]: 32 mg/L (≈ 22.3 µM); MIC Enterococcus faecium 35682 [21]: 16 mg/L (≈ 11.1 µM); MIC Acinetobacter baumannii ATCC 17978 [22]: 4 mg/L (≈ 2.78 µM); MIC Streptococcus mutans ATCC 25175 [23]: 16 mg/L (≈ 11.1 µM) |
